Test results reported in paper PMC9399069, “Imaging PARP with [^18F]rucaparib in pancreatic cancer models” (European Journal of Nuclear Medicine and Molecular Imaging, 2022).

Assays:
Format in all cases: cell-based, human
[1] = system: PSN1 cells; experiment: In vitro uptake and binding selectivity of [18F]rucaparib in PSN1 cells; details: PSN1 cells, unlabelled inhibitor 100 μM for 45 min before [18F]rucaparib (100 nM), further 45 min
Experimental: (§1) AsPC1 (1 × 10^5 cells/well) and PSN1 cells (7.5 × 10^4 cells/well) were seeded separately in 24-well plates (in 300 μL growth medium) and allowed to adhere for at least 20 h. […] To assess [^18F]rucaparib-binding selectivity, unlabelled PARP inhibitors, IMPDH2 or ALDH2 inhibitor, were added (100 μM, in 270 μL growth medium) for 45 min at 37 °C before addition of [^18F]rucaparib (156 kBq, 6.8 GBq/μmol; [^TotalF]rucaparib final concentration: 100 nM), and the cells were incubated at 37 °C for a further 45 min. Cell culture medium was removed, and cells were washed with PBS. Cells were lysed using RIPA buffer for 15 min at room temperature, and the amount of ^18F in the cell lysates was measured using an automated gamma counter (PerkinElmer), normalising for the number of cells.
(§2) Cells were lysed and the amount of ^18F in the cell lysates was measured as above.

[2] = system: AsPC1 cells; experiment: In vitro uptake and binding selectivity of [18F]rucaparib in AsPC1 cells; details: unlabelled inhibitor 100 μM for 45 min before [18F]rucaparib (100 nM), further 45 min
Experimental: as §1, §2

[3] = system: PSN1 cells; experiment: Protein expression by flow cytometry after PARP inhibitors or DNA-damaging reagents, PSN1 cells; details: 10 μM, 3 h, flow cytometry
Experimental: (§3) Relative expression of PARP1, 2 and 3, ALDH2 and IMPDH2 was determined by flow cytometry. Cells (1 × 10^6 cells/well) were seeded in 96-well plates in growth medium, washed with FACS buffer (PBS, 2% FBS, 1 mM EDTA, 0.1% NaN3) and centrifuged at 500×g for 5 min. Immunostaining was performed using the Foxp3/transcription factor staining buffer set (eBioscience^TM, USA). Intracellular staining was conducted in permeabilisation buffer for 30 min at 4 °C in the dark using the following antibodies: AF488-conjugated anti-PARP-1 (1:100; sc-80070), AF594-conjugated anti-PARP-2 (1:100; sc-393310), anti-PARP-3 (1:100; sc-390771) or anti-PARP-tankyrase-1/2 (1:100; sc-365897) from Santa Cruz Biotechnology Inc. (USA), AF488-conjugated anti-IMPDH2 (1:500; ab-200770) from Abcam plc. (UK) and AF488-conjugated anti-ALDH2 (1:100, ABIN6817568) from Antibodies-online GmbH (UK). Fixable viability dye ef780 (1:4000; eBioscience^TM; 65-0865-14) was used for live and dead cells discrimination. Fixation of immunostained cells was performed for 15 min at room temperature. Flow cytometry was conducted on the CytoFLEX benchtop flow cytometer (Beckman Coulter, USA), with appropriate lasers and filters, positive and negative controls. Data were analysed using FlowJo^TM (Tree Star Inc., BD Biosciences, USA).
(§4) AsPC1 (1 × 10^5 cells/well) and PSN1 cells (7.5 × 10^4 cells/well) were exposed to methyl methanesulfonate (MMS) or temozolomide (TMZ) (100 μM, in a total of 270 μL growth medium) for 3 h at 37 °C. Additionally, [^18F]rucaparib (500 kBq, 3.6 GBq/μmol; [^TotalF]rucaparib final concentration: 301 nM) or [^18F]olaparib (400 kBq, 8.5 GBq/μmol; [^TotalF]olaparib final concentration: 300 nM) was added, and the cells were incubated at 37 °C for 30 min. Cell culture medium was removed, and cells were washed with PBS. For cell retention, fresh medium (300 μL) was added to the cells. Cells were then further incubated at 37°C for 3 h. Cell culture medium was removed, and the amount of ^18F in the cell lysates was measured as above. Protein expression of the cells after DNA-damaging treatments (or PARP inhibitors 10 μM) was performed using flow cytometry as above.

[4] = system: AsPC1 cells; experiment: Protein expression by flow cytometry after PARP inhibitors or DNA-damaging reagents, AsPC1 cells; details: 10 μM, 3 h, flow cytometry
Experimental: as §3, §4

SMILES	Blocking of [18F]rucaparib uptake [1]	Blocking of [18F]rucaparib uptake [2]	PARP1 expression (MFI) after exposure of PARP inhibitors [3]	PARP1 expression (MFI) after exposure of PARP inhibitors [4]
COc1c(C)c2c(c(O)c1C/C=C(\C)CCC(=O)OCCN1CCOCC1)C(=O)OC2 [mycophenolate mofetil, reference compound]	significantly reduce	significantly reduce		
Cn1ncnc1[C@H]1c2n[nH]c(=O)c3cc(F)cc(c23)N[C@@H]1c1ccc(F)cc1 [talazoparib]			upregulated	upregulated
